Experimental data: patent publication US20260317340A1, “COMPOUNDS, COMPOSITIONS, AND METHODS OF TREATING DISORDERS” (Chengdu Anticancer Bioscience, Ltd., priority 2023, published 2026)
Where two headings read alike, the source gives them in different places.

Assays:
[1] = system: RPE-Neo or RPE-MYC or RPE-MYC expressing an EGFP-Histone 2B fusion protein; assay: Phenotypic screening assay: arrest in mitosis, change in DNA content (polyploidy), cell death; format: cell-based; settings: 20 nM to 20 μM, 24, 48 or 72 hours
Protocol: (§1) Human cancer cell lines were obtained from ATCC and cultured in DMEM (Gibco, Cleveland, TN, USA) supplemented with 5% fetal bovine serum (Gibco), penicillin (100 U/mL)-streptomycin (100 μg/mL) (Gibco, Cat. No. 15140-122), 2 mM L-glutamine (Gibco, 200 mM solution, Cat. No. 25030081), and 1 mM sodium pyruvate (Gibco, 100 mM solution, Cat. No. 11360070) at 37° C. in a humidified incubator that was maintained at 5% CO2.
Screening was conducted as described before (Li et al. 2019). Briefly, RPE-Neo or RPE-MYC or RPE-MYC expressing an EGFP-Histone 2B fusion protein were passaged as batches of 96-well plates, 18-24 hours before exposure to the chemical compounds of the present disclosure at concentrations from 20 nM to 20 μM. At 24, 48 or 72 hours after initiation of treatment, cells were analyzed for either an arrest in mitosis or a change in DNA content by GE IN-Cell Analyzer 2000. MTT assays of cellular proliferation were performed as previously described (Li et al. 2019).
(§2) As set forth in table 2 below, an values of greater than or equal to 1 nM and less than or equal to 1.0 μM is marked “A”; a value greater than 1.00 μM and less than or equal to 10.0 μM is marked “B”; a value greater than 10.0 μM and less than or equal to 30.0 μM is marked “C”; and a value greater than 30.0 μM and less than 1000 μM is marked “D.”

RPE-Neo or RPE-MYC cells = assay: MTT assay of cellular proliferation (proliferative arrest); format: cell-based; settings: read-out: Min. Effective conc. for Proliferative arrest (>50%)
Protocol: as §1
Screening was conducted as described before (Li et al. 2019). Briefly, RPE-Neo or RPE-MYC or RPE-MYC expressing an EGFP-Histone 2B fusion protein were passaged as batches of 96-well plates, 18-24 hours before exposure to the chemical compounds of the present disclosure at concentrations from 20 nM to 20 μM. At 24, 48 or 72 hours after initiation of treatment, cells were analyzed for either an arrest in mitosis or a change in DNA content by GE IN-Cell Analyzer 2000. MTT assays of cellular proliferation were performed as previously described (Li et al. 2019). […]
as §2

[2] = read-out: Min. Effective conc. for Along with Cell Death
[3] = ≥5%, read-out: Min. Effective conc. for Mitotic Arrest (≥5%)
[4] = ≥5%, read-out: Min. Effective conc. for Polyploidy (≥5%)

Measured: minimal effective concentration

COc1ccc(CN2C(=O)CC(c3ncc(C)o3)=Cc3ccc(-c4cncnc4)cc32)cc1 [Compound 46, 1-(4-methoxybenzyl)-4-(5-methyloxazol-2-yl)-8-(pyrimidin-5-yl)-1,3-dihydro-2H-benzo[b]azepin-2-one]
0.001 to 1 µM: [1]; [2] | [1]; [3] | [1]; [4] | RPE-Neo or RPE-MYC cells

COc1ccc(CN2C(=O)CC(c3ncc(C)o3)=Cc3ccc(-c4ccsc4)cc32)cc1 [Compound 28, 1-(4-methoxybenzyl)-4-(5-methyloxazol-2-yl)-8-(thiophen-3-yl)-1,3-dihydro-2H-benzo[b]azepin-2-one]
0.001 to 1 µM: [1]; [2] | [1]; [3] | [1]; [4] | RPE-Neo or RPE-MYC cells

COc1ccc(CN2C(=O)CC(c3ncc(C)o3)=Cc3ccc(-c4cnn(C5(CC#N)CN(C(=O)C6CC6)C5)c4)cc32)cc1 [Compound 90, 2-(1-(Cyclopropanecarbonyl)-3-(4-(1-(4-methoxybenzyl)-4-(5-methyloxazol-2-yl)-2-oxo-2,3-dihydro-1H-benzo[b]azepin-8-yl)-1H-pyrazol-1-yl)azetidin-3-yl)acetonitrile]
0.001 to 1 µM: [1]; [2] | [1]; [3] | [1]; [4] | RPE-Neo or RPE-MYC cells

CCc1ccc(CN2C(=O)CC(c3nnc(C4CC4)o3)=C(Br)c3ccccc32)cc1 [Compound 6, 5-Bromo-4-(5-cyclopropyl-1,3,4-oxadiazol-2-yl)-1-(4-ethylbenzyl)-1,3-dihydro-2H-benzo[b]azepin-2-one]
0.001 to 1 µM: [1]; [2] | [1]; [3] | [1]; [4] | RPE-Neo or RPE-MYC cells

COc1ccc(CN2C(=O)CC(c3nnc(C)o3)=Cc3ccc(-c4cnn(C)c4)cc32)cc1 [Compound 16, 1-(4-methoxybenzyl)-4-(5-methyl-1,3,4-oxadiazol-2-yl)-8-(1-methyl-1H-pyrazol-4-yl)-1,3-dihydro-2H-benzo[b]azepin-2-one]
0.001 to 1 µM: [1]; [2] | [1]; [3] | [1]; [4] | RPE-Neo or RPE-MYC cells

COc1ccc(CN2C(=O)CC(c3ncc(C)o3)=Cc3ccc(Br)cc32)cc1 [Compound 25, 8-bromo-1-(4-methoxybenzyl)-4-(5-methyloxazol-2-yl)-1,3-dihydro-2H-benzo[b]azepin-2-one]
0.001 to 1 µM: [1]; [2] | [1]; [3] | [1]; [4] | RPE-Neo or RPE-MYC cells

COc1ccc(CN2C(=O)CC(c3ncc(C)o3)=C(Br)c3ccccc32)cc1 [Compound 11, 5-Bromo-1-(4-methoxybenzyl)-4-(5-methyloxazol-2-yl)-1,3-dihydro-2H-benzo[b]azepin-2-one]
0.001 to 1 µM: [1]; [2] | [1]; [3] | [1]; [4] | RPE-Neo or RPE-MYC cells

COCCOCCn1cc(-c2ccc3c(c2)N(Cc2ccc(OC)cc2)C(=O)CC(c2ncc(C)o2)=C3)cn1 [Compound 78, 1-(4-methoxybenzyl)-8-(1-(2-(2-methoxyethoxy)ethyl)-1H-pyrazol-4-yl)-4-(5-methyloxazol-2-yl)-1,3-dihydro-2H-benzo[b]azepin-2-one]
0.001 to 1 µM: [1]; [2] | [1]; [3] | [1]; [4] | RPE-Neo or RPE-MYC cells

COc1ccc(C(=O)N2CCC(c3ncc(C)o3)=Cc3ccc(-c4cnn(CC(C)(C)O)c4)cc32)cc1 [Compound 104, (8-(1-(2-Hydroxy-2-methylpropyl)-1H-pyrazol-4-yl)-4-(5-methyloxazol-2-yl)-2,3-dihydro-1H-benzo[b]azepin-1-yl) (4-methoxyphenyl)methanone]
0.001 to 1 µM: [1]; [2] | [1]; [3] | [1]; [4] | RPE-Neo or RPE-MYC cells

COc1ccc(CN2C(=O)CC(c3ncc(C)o3)=Cc3ccc(-c4cnn(CCN(C)C)c4)cc32)cc1 [Compound 66, 8-(1-(2-(Dimethylamino)ethyl)-1H-pyrazol-4-yl)-1-(4-methoxybenzyl)-4-(5-methyloxazol-2-yl)-1,3-dihydro-2H-benzo[b]azepin-2-one]
0.001 to 1 µM: [1]; [2] | [1]; [3] | [1]; [4] | RPE-Neo or RPE-MYC cells

COc1ccc(CN2C(=O)CC(c3ncc(C)o3)=Cc3ccc(-c4cnn(C5CCOC5)c4)cc32)cc1 (stereo not drawn) [Compound 48, 1-(4-methoxybenzyl)-4-(5-methyloxazol-2-yl)-8-(1-(tetrahydrofuran-3-yl)-1H-pyrazol-4-yl)-1,3-dihydro-2H-benzo[b]azepin-2-one]
0.001 to 1 µM: [1]; [2] | [1]; [3] | [1]; [4] | RPE-Neo or RPE-MYC cells

COc1ccc(CN2C(=O)CC(c3ncc(C)o3)=Cc3ccc(-c4cnn(C5(CC#N)CN(S(=O)(=O)C6CC6)C5)c4)cc32)cc1 [Compound 89, 2-(1-(Cyclopropylsulfonyl)-3-(4-(1-(4-methoxybenzyl)-4-(5-methyloxazol-2-yl)-2-oxo-2,3-dihydro-1H-benzo[b]azepin-8-yl)-1H-pyrazol-1-yl)azetidin-3-yl)acetonitrile]
0.001 to 1 µM: [1]; [2] | [1]; [3] | [1]; [4] | RPE-Neo or RPE-MYC cells

Cc1ccc(CN2C(=O)CC(c3nnc(C4CC4)o3)=C(Br)c3scc(C)c32)cc1F [Compound 1, 8-Bromo-7-(5-cyclopropyl-1,3,4-oxadiazol-2-yl)-4-(3-fluoro-4-methylbenzyl)-3-methyl-4,6-dihydro-5H-thieno[3,2-b]azepin-5-one]
0.001 to 1 µM: [1]; [2] | [1]; [3] | [1]; [4] | RPE-Neo or RPE-MYC cells

CNC(=O)Cn1cc(-c2ccc3c(c2)N(Cc2ccc(OC)cc2)C(=O)CC(c2ncc(C)o2)=C3)cn1 [Compound 67, 2-(4-(1-(4-Methoxybenzyl)-4-(5-methyloxazol-2-yl)-2-oxo-2,3-dihydro-1H-benzo[b]azepin-8-yl)-1H-pyrazol-1-yl)-N-methylacetamide]
0.001 to 1 µM: [1]; [2] | [1]; [3] | [1]; [4] | RPE-Neo or RPE-MYC cells

CCOC(=O)C(C)n1cc(-c2ccc3c(c2)N(Cc2ccc(OC)cc2)C(=O)CC(c2ncc(C)o2)=C3)cn1 (stereo not drawn) [Compound 74, Ethyl 2-(4-(1-(4-methoxybenzyl)-4-(5-methyloxazol-2-yl)-2-oxo-2,3-dihydro-1H-benzo[b]azepin-8-yl)-1H-pyrazol-1-yl)propanoate]
0.001 to 1 µM: [1]; [2] | [1]; [3] | [1]; [4] | RPE-Neo or RPE-MYC cells
